This is an account of results in US12150995B2, “IRAK degraders and uses thereof” (Kymera Therapeutics, Inc., priority 2020, dated 2024).

This test addresses T1, IRAK4 (Homo sapiens, UniProt Q9NWZ3).
T1 construct: endogenous in cells; host or cells: OCI-LY10
T1 sequence (Q9NWZ3 1-460): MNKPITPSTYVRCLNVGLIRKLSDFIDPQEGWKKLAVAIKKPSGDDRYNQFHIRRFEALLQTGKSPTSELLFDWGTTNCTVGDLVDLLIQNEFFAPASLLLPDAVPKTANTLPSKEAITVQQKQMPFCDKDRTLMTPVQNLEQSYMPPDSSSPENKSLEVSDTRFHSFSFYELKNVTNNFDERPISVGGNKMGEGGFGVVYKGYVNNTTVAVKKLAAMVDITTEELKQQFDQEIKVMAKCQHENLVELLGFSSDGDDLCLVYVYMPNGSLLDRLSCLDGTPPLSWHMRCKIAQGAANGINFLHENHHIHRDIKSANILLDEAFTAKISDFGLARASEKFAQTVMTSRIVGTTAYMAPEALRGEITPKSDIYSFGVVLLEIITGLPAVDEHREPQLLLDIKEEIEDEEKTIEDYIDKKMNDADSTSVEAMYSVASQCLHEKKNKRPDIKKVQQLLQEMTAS
The experiment in a line: IRAK4 MSD Degradation in OCI-LY10. Conditions: OCI-LY10 cells, Meso Scale Discovery, incubated 4 to 24 hours. The format is cell-based. In short, it runs like this:
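OCI-LY10 cells (300,000/well) exposed to an 8-point 1:3 series from a top concentration of 1 to 10 μM for 4 to 24 h at 37 °C. IRAK4 remaining in RIPA lysates quantified by MSD sandwich immunoassay; DC50 from a three-parameter logistic fit.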

One may read the DC50 as the concentration at which degradation of the target reaches its halfway point. Consider `COc1cc2nc([C@H]3CC[C@H](CN4CCC(c5cccc6c5n(C)c(=O)n6C5CCC(=O)NC5=O)CC4)CC3)sc2cc1NC(=O)c1cncc(Cl)c1` (stereo partly shown) [I-182], for which the half-maximal degradation concentration (DC50) was < 10 nM. For `Cc1cc2nn([C@H]3CC[C@H](CN4CCN(c5cccc6c5n(C)c(=O)n6C5CCC(=O)NC5=O)CC4)CC3)cc2cc1NC(=O)c1cncc(C(F)(F)F)n1` (stereo partly shown) [I-401] the value was < 10 nM; for `COc1cc2nc([C@H]3CC[C@H](CN(C)CCCNc4cccc5c4C(=O)N(C4CCC(=O)NC4=O)C5=O)CC3)sc2cc1NC(=O)c1cncc(Cl)c1` (stereo partly shown) [I-483], > 200 nM; for `Cn1c(=O)n(C2CCC(=O)NC2=O)c2cccc(C3CCN(C[C@H]4CC[C@H](n5cc6cc(NC(=O)n7ccc8cc(C#N)cnc87)ccc6n5)CC4)CC3)c21` (stereo partly shown) [I-129], < 10 nM. As to `O=C1CCC(N2C(=O)c3cccc(NCCC4CC5(C4)CN(C[C@H]4CC[C@H](c6nc7cc(C(=O)O)c(NC(=O)c8cccc(C(F)(F)F)n8)cc7s6)CC4)C5)c3C2=O)C(=O)N1` (stereo partly shown) [I-485], the DC50 was in the range of 10 to 50 nM.

`Cn1c(=O)n(C2CCC(=O)NC2=O)c2cccc(N3CCN(C[C@H]4CC[C@H](n5cc6cc(NC(=O)c7cccc(C(F)(F)F)n7)c(C(=O)O)cc6n5)CC4)CC3)c21` (stereo partly shown) [I-415, 2-[4-[[4-[1-(2,6-dioxo-3-piperidyl)-3-methyl-2-oxo-benzimidazol-4-yl]piperazin-1-yl]methyl]cyclohexyl]-5-[[6-(trifluoromethyl)pyridine-2-carbonyl]amino]indazole-6-carboxylic acid] showed a DC50 of 10 to 50 nM. For the compound `COc1cc2nn([C@H]3CC[C@H](CN4CCC(c5cccc6c5n(C)c(=O)n6C5CCC(=O)NC5=O)CC4)CC3)cc2cc1NC(=O)c1cc(F)cc(C(F)(F)F)c1` (stereo partly shown) [I-132], the DC50 is < 10 nM.

In the case of `COc1cc2nn([C@H]3CC[C@H](CN4CCC(c5c(C)ccc6c5n(C)c(=O)n6C5CCC(=O)NC5=O)CC4)CC3)cc2cc1NC(=O)c1cncc(C#N)c1` (stereo partly shown) [I-109], the DC50 is < 10 nM. On to `COc1cc2nn([C@H]3CC[C@H](CN4CCN(c5ccc(N6CCC(=O)NC6=O)cc5)CC4)CC3)cc2cc1NC(=O)c1cccc(C(F)(F)F)n1` [I-312], for which the DC50 is > 200 nM. Next, `CC(C)Nc1cc(-n2ccc3cc(C#N)cnc32)ncc1-c1cn([C@H]2CC[C@H](CN3CCC(c4cccc5c4n(C)c(=O)n5C4CCC(=O)NC4=O)CC3)CC2)nn1` (stereo partly shown) [I-159]: < 10 nM. Compound `CC(C)(O)c1cc2nc([C@H]3CC[C@H](CN4CCN(CCNc5cccc6c5C(=O)N(C5CCC(=O)NC5=O)C6=O)CC4)CC3)sc2cc1NC(=O)c1cncc(C#N)c1` (stereo partly shown) [I-453] showed a DC50 of 100 to 200 nM. Consider `Cc1nc(C(=O)Nc2cc3cn([C@H]4CC[C@H](CN5CCC(c6cccc7c6n(C)c(=O)n7C6CCC(=O)N(C)C6=O)CC5)CC4)nc3cc2C(C)(C)O)co1` (stereo partly shown) [I-60], for which the DC50 is > 200 nM.

As to `COc1cc2nn([C@H]3CC[C@H](CN4CCN(c5c(C)ccc6c(N7CCC(=O)NC7=O)cncc56)CC4)CC3)cc2cc1NC(=O)c1cccc(C(F)(F)F)n1` [I-331], the DC50 was < 10 nM. In turn, `COc1ccc2c(c1C1CCN(C[C@H]3C[C@H](n4cc5cc(NC(=O)c6cccc(C(F)(F)F)n6)ccc5n4)C3)CC1)n(C)c(=O)n2C1CCC(=O)NC1=O` (stereo partly shown) [I-152] displayed a DC50 of 10 to 50 nM.

In the case of `COc1cc2nn([C@H]3CC[C@H](CN4CCN(c5cccc6c5n(C)c(=O)n6C5CCC(=O)NC5=O)CC4)CC3)cc2cc1NC(=O)c1cncc(C#N)c1` (stereo partly shown) [I-165], the DC50 is < 10 nM. For `COc1cc2nn([C@H]3CC[C@H](CN4CCC(c5cccc6c5n(C)c(=O)n6C5CCC(=O)NC5=O)CC4)CC3)cc2cc1NC(=O)c1cncc(C(F)(F)F)c1` (stereo partly shown) [I-86] the value was < 10 nM; for `CN(C[C@H]1CC[C@H](n2cc3cc(NC(=O)C4CC4)c(C(C)(C)O)cc3n2)CC1)C1CCN(Cc2cccc3c2n(C)c(=O)n3C2CCC(=O)NC2=O)CC1` (stereo partly shown) [I-1], > 200 nM; for `Cn1c(=O)n(C2CCC(=O)NC2=O)c2ccc(Cl)c(C3CCN(C[C@H]4C[C@H](n5cc6cc(NC(=O)c7cccc(C(F)(F)F)n7)ccc6n5)C4)CC3)c21` (stereo partly shown) [I-150], 100 to 200 nM. Take `COc1cc2nn([C@H]3CC[C@H](CN4C5CC4CN(c4cccc6c(N7CCC(=O)NC7=O)cncc46)C5)CC3)cc2cc1NC(=O)c1cccc(C(F)(F)F)n1` [I-220]: the DC50 is < 10 nM. Next, `Cc1cc2nn([C@H]3CC[C@H](CN4CCN(c5cccc6c5n(C5CC5)c(=O)n6C5CCC(=O)NC5=O)CC4)CC3)cc2cc1NC(=O)c1cccc(C(F)(F)F)n1` (stereo partly shown) [I-304]: 10 to 50 nM; `COc1cc2nn([C@H]3CC[C@H](CN4CCN(c5cccc6c(N7CCC(=O)NC7=O)ncnc56)CC4)CC3)cc2cc1NC(=O)c1cccc(C(F)(F)F)n1` [I-380]: 10 to 50 nM; `CC(C)Nc1cc(-n2ccc3cc(C#N)cnc32)ncc1C(=O)N1CCC(CN(C)C2CCN(c3cccc4c3n(C)c(=O)n4C3CCC(=O)NC3=O)CC2)CC1` (stereo not shown) [I-115]: > 200 nM. `COc1cc2nn([C@H]3CC[C@H](CN4CCC(c5cccc6c5n(C)c(=O)n6C5CCC(=O)NC5=O)CC4)CC3)cc2cc1NC(=O)c1nc(C(F)(F)F)cs1` (stereo partly shown) [I-175]: the half-maximal degradation concentration (DC50) is < 10 nM. As for `Cn1c(=O)n(C2CCC(=O)NC2=O)c2ccc(F)c(C3CCN(C[C@H]4C[C@H](n5cc6cc(NC(=O)c7cccc(C(F)(F)F)n7)ccc6n5)C4)CC3)c21` (stereo partly shown) [I-151], the DC50 is < 10 nM. On to `Cn1c(=O)n(C2CCC(=O)NC2=O)c2cccc(C3CCN(C[C@H]4CC[C@H](n5cc6cc(NC(=O)c7cccc(C(F)(F)F)n7)c(C#N)cc6n5)CC4)CC3)c21` (stereo partly shown) [I-189], for which the DC50 was < 10 nM. `COc1cc(NC(=O)c2cccc(C(F)(F)F)n2)cc2cn([C@H]3CC[C@H](CN4CCN(c5cccc6c(N7CCC(=O)NC7=O)cncc56)CC4)CC3)nc12` [I-222]: the DC50 was < 10 nM. For the compound `CC(C)Nc1cc(-n2ccc3cc(C#N)cnc32)ncc1C(=O)N[C@H]1CC[C@H](CN2CCC(c3cccc4c(N5CCC(=O)NC5=O)cncc34)CC2)CC1` [I-190], the DC50 is < 10 nM.

`Cc1cccc(C(=O)Nc2cc3sc([C@H]4CC[C@H](CN5C[C@H]6C[C@@H]5CN6CCCNc5cccc6c5C(=O)N(C5CCC(=O)NC5=O)C6=O)CC4)nc3cc2C(C)(C)O)n1` (stereo partly shown) [I-432] gave a DC50 of 100 to 200 nM. For `Cc1ccc2c(c1C1CCN(C[C@H]3CC[C@H](n4cc5cc(NC(=O)c6cccc(C#N)n6)ccc5n4)CC3)CC1)n(C)c(=O)n2C1CCC(=O)NC1=O` (stereo partly shown) [I-323], the 50% degradation concentration (DC50) is < 10 nM.

As to `COc1cc2nn([C@H]3CC[C@H](CN4CCC(c5cccc6c5n(C)c(=O)n6C5CCC(=O)NC5=O)CC4)CC3)cc2cc1NC(=O)c1cnc(OC)c(Cl)c1` (stereo partly shown) [I-193], the DC50 is > 200 nM.

For the compound `Cn1c(=O)n(C2CCC(=O)NC2=O)c2cccc(N3CCN(C[C@H]4CC[C@H](n5cc6cc(NC(=O)c7cccc(C(F)(F)F)n7)c(N7C[C@@H]8C[C@H]7CO8)cc6n5)CC4)CC3)c21` (stereo partly shown) [I-383], the half-maximal degradation concentration (DC50) is < 10 nM. Consider `CC(C)Nc1cc(-n2ccc3cc(F)cnc32)ncc1C(=O)N[C@H]1CC[C@H](CN2CCN(c3cccc4c3n(C)c(=O)n4C3CCC(=O)NC3=O)CC2)CC1` (stereo partly shown) [I-290], for which the DC50 is 10 to 50 nM. For `Cc1cc(C2CCN(C[C@H]3CC[C@H](n4cc5cc(NC(=O)c6cccc(C(F)(F)F)n6)c(F)cc5n4)CC3)CC2)c2c(c1)n(C1CCC(=O)NC1=O)c(=O)n2C` (stereo partly shown) [I-23] the value was 100 to 200 nM. Next, `CC(C)(O)c1cc2nn(-c3ccc(CN4CCC5(CCC(Nc6cccc7c6C(=O)N(C6CCC(=O)NC6=O)C7=O)CC5)CC4)cc3)cc2cc1NC(=O)c1cccc(C(F)(F)F)n1` (stereo not shown) [I-462]: 100 to 200 nM.
